Publication PMC7687369 (Antiviral Research, 2020)

Key:
SARS-CoV-2 [1] = format: cell-based; conditions: Vero E6-hTMPRSS2 cells
SARS-CoV-2 [2] = test: Viral replication assay in Vero E6-hTMPRSS2 cells; format: cell-based
SARS-CoV-2 [3] = format: cell-based
MERS-CoV = conditions: cited from earlier work
SARS-CoV = conditions: cited from earlier work

In the case of `CNc1ccc2oc(C[C@H]3O[C@@]4(CC[C@H]3C)O[C@H]([C@H](C)C(=O)c3ccc[nH]3)[C@H](C)C[C@H]4C)nc2c1C(=O)O` [Calcimycin], the “selectivity between viral-induced cytopathogenicity and inhibition of cell viability” value (SARS-CoV-2 [1]) is reported as 18 fold.

With `CCC(CC)COC(=O)[C@H](C)N[P@](=O)(OC[C@H]1O[C@@](C#N)(c2ccc3c(N)ncnn23)[C@H](O)[C@@H]1O)Oc1ccccc1` [Remdesivir] the “selectivity between viral-induced cytopathogenicity and inhibition of cell viability” value (SARS-CoV-2 [1]) was > 67 fold.

With `CCN(CCO)CCCC(C)Nc1ccnc2cc(Cl)ccc12` (stereo not drawn) [Hydroxychloroquine] the “inhibition of viral replication (in words)” value (SARS-CoV-2 [2]) was “did not efficiently inhibit viral replication”, the “antiviral activity, SARS-CoV-2 RNA (in words)” value (SARS-CoV-2 [3]) was “effective in wildtype Vero E6 cells at high micromolar concentrations” and the “anti-viral activity in the cytopathogenic effect screen (in words)” value (SARS-CoV-2 [1]) was “negligible anti-viral activity”.

In the case of `CC[C@@H](C(=O)[C@@H](C)[C@@H](O)[C@H](C)[C@@H]1O[C@@H]([C@@H](CC)C(=O)O)CC[C@@H]1C)[C@H]1O[C@]2(C=C[C@@H](O)[C@]3(CC[C@@](C)([C@H]4CC[C@](O)(CC)[C@H](C)O4)O3)O2)[C@H](C)C[C@@H]1C` [Salinomycin], the “inhibition of viral replication (in words)” value (SARS-CoV-2 [2]) is given as “potent inhibition”, the “inhibition of the cytopathogenic effect of MERS-CoV” value (MERS-CoV) is given as “could inhibit the cytopathogenic effect of MERS-CoV” and the “inhibition of the cytopathogenic effect of SARS-CoV” value (SARS-CoV) is given as “but not SARS-CoV”.

In the case of `CO[C@@H]1[C@@H](OC)[C@H](C)[C@@](O)(CC(=O)O)O[C@H]1[C@H](C)[C@H]1O[C@@]2(CC[C@@](C)([C@H]3CC[C@@](C)([C@@H]4O[C@@H]([C@H]5O[C@](C)(O)[C@H](C)C[C@@H]5C)C[C@@H]4O[C@@H]4C[C@H](OC)[C@@H](OC)[C@H](C)O4)O3)O2)C[C@H](O)[C@H]1C` [Maduramycin], the “selectivity between viral-induced cytopathogenicity and inhibition of cell viability” value (SARS-CoV-2 [1]) is reported as 313 fold.

In the case of `C[C@H](CCC(=O)O)C[C@H](C)C[C@H](C)C(=O)/C=C(\O)[C@H](C)C[C@H](C)C/C=C/[C@@H](C)[C@@H](O)[C@@H](C)[C@@H](O)C[C@@H]1CC[C@@](C)([C@H]2CC[C@@](C)([C@@H](C)O)O2)O1` [Ionomycin], the “selectivity between viral-induced cytopathogenicity and inhibition of cell viability” value (SARS-CoV-2 [1]) is reported as 5 fold.

For `CC[C@@]1([C@@H]2O[C@@H]([C@H]3O[C@@](O)(CO)[C@H](C)C[C@@H]3C)C[C@@H]2C)CC[C@H]([C@]2(C)CC[C@]3(C[C@H](O)[C@@H](C)[C@@H]([C@@H](C)[C@@H](OC)[C@H](C)C(=O)O)O3)O2)O1` [Monensin], the “inhibition of the cytopathogenic effect of MERS-CoV” value (MERS-CoV) is given as “could inhibit the cytopathogenic effect of MERS-CoV” and the “inhibition of the cytopathogenic effect of SARS-CoV” value (SARS-CoV) is given as “but not SARS-CoV”.
